The target in one test is T1, PIM2 (Homo sapiens, UniProt Q9P1W9).
T1 construct: made in house
Briefly: Pim-2 kinase enzymatic assay (Caliper LC3000, FAM-Pimtide substrate). It is filed as biochemical. To be noted: 50 pM PIM2, 10 μM ATP, 90 minutes; read-out: PIM2 LC3K (Ki).

In the next test the target is BaF3 PIM1 cells (Homo sapiens, UniProt P11309). Briefly: BaF3 PIM1 cell proliferation (Cell Titer Glo). In kind it is cell-based. To be noted: incubated overnight; read-out: Prolif BaF3_PIM1 (IC50). On the technique in general: Cellular ATP, detected with luciferase, serves as a proxy for viable cell number.
BaF3 PIM1 cells, sequence (P11309 whole entry, change not shown): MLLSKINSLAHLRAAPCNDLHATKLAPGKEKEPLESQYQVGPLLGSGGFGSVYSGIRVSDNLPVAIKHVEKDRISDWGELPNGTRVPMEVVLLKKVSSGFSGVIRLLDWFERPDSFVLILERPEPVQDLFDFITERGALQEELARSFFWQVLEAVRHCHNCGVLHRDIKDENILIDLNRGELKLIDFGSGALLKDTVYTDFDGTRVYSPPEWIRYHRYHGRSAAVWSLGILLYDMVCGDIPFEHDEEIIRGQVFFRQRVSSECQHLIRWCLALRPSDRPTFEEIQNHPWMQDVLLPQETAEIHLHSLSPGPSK
Another test concerns the target T2, PIM1 (Homo sapiens, UniProt P11309).
T2 construct: made in house
Briefly: Pim-1 kinase enzymatic assay (Caliper LC3000, FAM-Pimtide substrate). To be noted: 20 pM PIM1, 10 μM ATP, 90 minutes; read-out: PIM1 LC3K (Ki). In kind it is biochemical.

The subject of the next test is MM1.S cells. Briefly: MM1.S cell proliferation, 72 hours (Cell Titer Glo). In kind it is cell-based. The settings on record: Homo sapiens, 72 hours, read-out: Prolif MM1S ATP (EC50). The essentials:
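BaF3 parental cells (2 k/well, with 2 ng/mL mIL-3) were treated overnight, and MM1.S cells (10 k/well) were treated for 72 h at 37 °C. Viability was read by CellTiter-Glo luminescence. IC50/EC50 values were calculated from the luminescence data.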

Another test has as its target BaF3 PIM2 cells (Homo sapiens, UniProt Q9P1W9). Briefly: BaF3 PIM2 cell proliferation (Cell Titer Glo). It is filed as cell-based. To be noted: incubated overnight; read-out: Prolif BaF3_PIM2 (IC50). The essentials:
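BaF3 cells stably transfected with PIM2 were cultured in RPMI with 10% FBS, 2 mM L-Glutamine and 250 μg/mL G418, then plated at 5 k/well in 45 μL/well of a 384-well plate. Test compound was added at 5 μL/well, cells incubated overnight, and viability measured by luminescence after 30 minutes with Cell Titer Glo (50 μL/well).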

Another test addresses T3, PIM3 (Homo sapiens, UniProt Q86V86).
T3 construct: made in house
Briefly: Pim-3 kinase enzymatic assay (Caliper LC3000, FAM-Pimtide substrate). It is filed as biochemical. To be noted: 55 pM PIM3, 10 μM ATP, 90 minutes; read-out: PIM3 LC3K (Ki).

The structures appear in SMILES notation. Where only a bound is given, the exact number is not on record here.

T2 sequence (P11309 whole entry): as the sequence (P11309 whole entry, change not shown) above
BaF3 PIM2 cells, sequence (Q9P1W9 whole entry, change not shown): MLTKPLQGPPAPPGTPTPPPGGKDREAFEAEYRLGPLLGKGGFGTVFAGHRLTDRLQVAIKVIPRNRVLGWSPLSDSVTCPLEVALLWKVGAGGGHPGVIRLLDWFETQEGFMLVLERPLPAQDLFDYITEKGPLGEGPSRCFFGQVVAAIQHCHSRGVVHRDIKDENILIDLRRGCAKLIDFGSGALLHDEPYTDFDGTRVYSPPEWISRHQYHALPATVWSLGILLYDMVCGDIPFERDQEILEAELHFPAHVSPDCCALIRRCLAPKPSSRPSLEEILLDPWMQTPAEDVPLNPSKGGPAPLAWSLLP
T1 sequence (Q9P1W9 whole entry): as the sequence (Q9P1W9 whole entry, change not shown) above

As for `Nc1sc(-c2ccccn2)nc1C(=O)Nc1cnccc1N1CCC[C@H](N)C1` [Example 9, (S)-5-amino-N-(4-(3-aminopiperidin-1-yl)pyridin-3-yl)-2-(pyridin-2-yl)thiazole-4-carboxamide], the figures for the Ki on PIM2, at PIM1 and at PIM3 were 0.16 nM, 0.084 nM and 0.014 nM, respectively. For the same compound, the results for the GI50 at BaF3 PIM1 cells and on BaF3 PIM2 cells were 68.8 nM and 1900 nM, respectively. Moreover, in the test with MM1.S cells, the EC50 was found to be 89.7 nM.
As to `Nc1sc(-c2cccc(Br)c2)nc1C(=O)Nc1cnccc1N1CCC[C@H](N)C1` [Example 6, (S)-5-amino-N-(4-(3-aminopiperidin-1-yl)pyridin-3-yl)-2-(3-bromophenyl)thiazole-4-carboxamide], the Ki on PIM2 worked out at 0.379 nM; at PIM1 it was 0.063 nM; at PIM3, 0.032 nM. Moreover, the GI50 on BaF3 PIM1 cells turned out to be 117 nM; at BaF3 PIM2 cells, 1400 nM. Moreover, in the test on MM1.S cells, the EC50 was 595 nM.
Take `Cc1nc(C(=O)Nc2cnccc2N2CCC[C@H](N)C2)c(N)s1` [Example 8, (S)-5-amino-N-(4-(3-aminopiperidin-1-yl)pyridin-3-yl)-2-methylthiazole-4-carboxamide]: the Ki at PIM2 was determined as 16.3 nM; at PIM1, 3.47 nM; on PIM3 it was 9.53 nM. In addition, the GI50 on BaF3 PIM1 cells is 713 nM; at BaF3 PIM2 cells it was greater than 20000 nM. The EC50 in the test on MM1.S cells is greater than 20000 nM.
For `Nc1sc(-c2cc(Cl)ccc2F)nc1C(=O)Nc1cnccc1N1CCC[C@H](N)C1` [Example 23, (S)-5-amino-N-(4-(3-aminopiperidin-1-yl)pyridin-3-yl)-2-(5-chloro-2-fluorophenyl)thiazole-4-carboxamide], the Ki amounted to 0.153 nM at PIM2, 0.034 nM at PIM1 and 0.031 nM on PIM3. For the same compound, the GI50 came out at 2500 nM at BaF3 PIM1 cells and 1800 nM at BaF3 PIM2 cells. Further, the 50% effective concentration (EC50) in the test with MM1.S cells is 137 nM.
On to `COc1cc(F)c(-c2nc(C(=O)Nc3cnccc3N3CCC[C@H](N)C3)c(N)s2)c(F)c1` [Example 34, (S)-5-amino-N-(4-(3-aminopiperidin-1-yl)pyridin-3-yl)-2-(2,6-difluoro-4-methoxyphenyl)thiazole-4-carboxamide], for which the Ki stood at 0.0957 nM on PIM2, 0.012 nM on PIM1 and 0.022 nM on PIM3. The GI50 at BaF3 PIM1 cells was 19.1 nM; on BaF3 PIM2 cells, greater than 2500 nM. Besides, in the test on MM1.S cells, the EC50 was found to be 56.8 nM.
Consider `Nc1sc(-c2cc(Br)ccc2Cl)nc1C(=O)Nc1cnccc1N1CCC[C@H](N)C1` [Example 5, (S)-5-amino-N-(4-(3-aminopiperidin-1-yl)pyridin-3-yl)-2-(5-bromo-2-chlorophenyl)thiazole-4-carboxamide], for which the Ki at PIM2 is 0.493 nM; at PIM1, 0.044 nM; at PIM3, 0.05 nM. Moreover, the GI50 came to 300 nM on BaF3 PIM1 cells and 2800 nM on BaF3 PIM2 cells. Besides, the EC50 in the test on MM1.S cells was 1500 nM.
On to `CN(C)C(=O)c1ccc(F)c(-c2nc(C(=O)Nc3cnccc3N3CCC[C@H](N)C3)cs2)c1` [Example 47, (S)-N-(4-(3-aminopiperidin-1-yl)pyridin-3-yl)-2-(5-(dimethylcarbamoyl)-2-fluorophenyl)thiazole-4-carboxamide], for which the inhibitory constant (Ki) was found to be 59.8 nM on PIM2, 3.98 nM at PIM1 and 2.11 nM at PIM3. In addition, the GI50 at BaF3 PIM1 cells is 3900 nM; on BaF3 PIM2 cells, greater than 20000 nM. In the test with MM1.S cells, the EC50 is greater than 20000 nM.
With `Nc1sc(-c2cnc3ccccn23)nc1C(=O)Nc1cnccc1N1CCC[C@H](N)C1` [Example 57, (S)-5-amino-N-(4-(3-aminopiperidin-1-yl)pyridin-3-yl)-2-(imidazo[1,2-a]pyridin-3-yl)thiazole-4-carboxamide], the Ki on PIM2 is 2.88 nM; on PIM1, 0.11 nM; at PIM3, 0.229 nM. For the same compound, the GI50 is 494 nM on BaF3 PIM1 cells and greater than 20000 nM at BaF3 PIM2 cells. Besides, in the test on MM1.S cells, the EC50 is 5100 nM.
For the compound `Nc1sc(-c2ccccc2)nc1C(=O)Nc1cnccc1N1CCC[C@H](N)C1` [Example 7, (S)-5-amino-N-(4-(3-aminopiperidin-1-yl)pyridin-3-yl)-2-phenylthiazole-4-carboxamide], the Ki at PIM2 amounted to 0.203 nM; on PIM1, 0.091 nM; at PIM3, 0.0215 nM. Moreover, the GI50 at BaF3 PIM1 cells stood at 73 nM; at BaF3 PIM2 cells, 3100 nM. Besides, in the test with MM1.S cells, the EC50 is 141 nM.
As to `Cc1ccccc1-c1nc(C(=O)Nc2cnccc2N2CCC[C@H](N)C2)c(N)s1` [Example 40, (S)-5-amino-N-(4-(3-aminopiperidin-1-yl)pyridin-3-yl)-2-o-tolylthiazole-4-carboxamide], the Ki is 0.725 nM on PIM2, 0.129 nM at PIM1 and 0.037 nM at PIM3. Besides, the GI50 was 164 nM on BaF3 PIM1 cells and 6500 nM at BaF3 PIM2 cells. Further, the EC50 in the test with MM1.S cells came to 2500 nM.
As for `COc1ccc(-c2nc(C(=O)Nc3cnccc3N3CCC[C@H](N)C3)c(N)s2)c(F)c1` [Example 35, (S)-5-amino-N-(4-(3-aminopiperidin-1-yl)pyridin-3-yl)-2-(2-fluoro-4-methoxyphenyl)thiazole-4-carboxamide], the Ki at PIM2 stood at 5.28 nM; at PIM1, 0.709 nM; on PIM3, 1.13 nM. In addition, the figures for the GI50 on BaF3 PIM1 cells and on BaF3 PIM2 cells were 29.3 nM and 2000 nM, respectively. In addition, the half-maximal effective concentration (EC50) with MM1.S cells turned out to be 2300 nM.
As to `Nc1sc(-c2ccc(F)cc2F)nc1C(=O)Nc1cnccc1N1CCC[C@H](N)C1` [Example 42, (S)-5-amino-N-(4-(3-aminopiperidin-1-yl)pyridin-3-yl)-2-(2,4-difluorophenyl)thiazole-4-carboxamide], the Ki on PIM2 was found to be 0.0939 nM; at PIM1, 0.036 nM; on PIM3, 0.022 nM. In addition, the GI50 came out at 30.4 nM at BaF3 PIM1 cells and 2100 nM at BaF3 PIM2 cells. In addition, the EC50 with MM1.S cells was 121 nM.
On to `Nc1sc(-c2cc[nH]n2)nc1C(=O)Nc1cnccc1N1CCC[C@H](N)C1` [Example 51, (S)-5-amino-N-(4-(3-aminopiperidin-1-yl)pyridin-3-yl)-2-(1H-pyrazol-3-yl)thiazole-4-carboxamide], for which the Ki on PIM2 is 0.265 nM; on PIM1, 0.0812 nM; on PIM3, 0.041 nM. The GI50 on BaF3 PIM1 cells is 197 nM; on BaF3 PIM2 cells it was greater than 20000 nM. In the test on MM1.S cells, the EC50 was found to be 156 nM.
For `C=C(C)c1nc(C(=O)Nc2cnccc2N2CCC[C@H](N)C2)c(N)s1` [Example 59, (S)-5-amino-N-(4-(3-aminopiperidin-1-yl)pyridin-3-yl)-2-(prop-1-en-2-yl)thiazole-4-carboxamide], the inhibition constant (Ki) on PIM2 came out at 355 nM; on PIM1, 18.2 nM; on PIM3, 48 nM. Besides, the GI50 at BaF3 PIM1 cells and on BaF3 PIM2 cells was greater than 20000 nM each time. The EC50 in the test with MM1.S cells is greater than 20000 nM.
Take `Nc1sc(-c2ccc3nccn3c2)nc1C(=O)Nc1cnccc1N1CCC[C@H](N)C1` [Example 61, (S)-5-amino-N-(4-(3-aminopiperidin-1-yl)pyridin-3-yl)-2-(imidazo[1,2-a]pyridin-6-yl)thiazole-4-carboxamide]: the inhibitory constant (Ki) on PIM2 worked out at 18.2 nM; at PIM1, 0.642 nM; on PIM3, 1.01 nM. The GI50 on BaF3 PIM1 cells is 7100 nM; at BaF3 PIM2 cells it was greater than 20000 nM. Also, the EC50 in the test on MM1.S cells turned out to be 10400 nM.
For `CN(C)Cc1nc(C(=O)Nc2cnccc2N2CCC[C@H](N)C2)c(N)s1` [Example 21, (S)-5-amino-N-(4-(3-aminopiperidin-1-yl)pyridin-3-yl)-2-((dimethylamino)methyl)thiazole-4-carboxamide], the Ki at PIM2 is 242 nM; at PIM1, 420 nM; on PIM3 it was 138 nM. The GI50 at BaF3 PIM1 cells and on BaF3 PIM2 cells was greater than 20000 nM in each case. The EC50 in the test with MM1.S cells was greater than 20000 nM.
Regarding `Nc1sc(C2CCCC2)nc1C(=O)Nc1cnccc1N1CCC[C@H](N)C1` [Example 60, (S)-5-amino-N-(4-(3-aminopiperidin-1-yl)pyridin-3-yl)-2-cyclopentylthiazole-4-carboxamide], the results for the inhibition constant (Ki) on PIM2, on PIM1 and at PIM3 were 1.16 nM, 1.07 nM and 0.279 nM, respectively. Moreover, the GI50 at BaF3 PIM1 cells came to 465 nM; on BaF3 PIM2 cells, 17600 nM. Moreover, in the test with MM1.S cells, the EC50 came out at 1400 nM.
`CC(C)Oc1ccc(F)c(-c2nc(C(=O)Nc3cnccc3N3CCC[C@H](N)C3)c(N)s2)c1F` [Example 29, (S)-5-amino-N-(4-(3-aminopiperidin-1-yl)pyridin-3-yl)-2-(3-isopropyloxy-2,6-difluorophenyl)thiazole-4-carboxamide]: the inhibition constant (Ki) at PIM2 was found to be 0.565 nM; on PIM1, 0.058 nM; at PIM3 it was 0.07 nM. For the same compound, the GI50 on BaF3 PIM1 cells was determined as 48.9 nM; on BaF3 PIM2 cells, 4300 nM. Besides, the EC50 in the test on MM1.S cells was 1600 nM.
Turning to `Cc1ccc(-c2nc(C(=O)Nc3cnccc3N3CCC[C@H](N)C3)c(N)s2)cc1` [Example 30, (S)-5-amino-N-(4-(3-aminopiperidin-1-yl)pyridin-3-yl)-2-(4-tolylthiazole)-4-carboxamide], the Ki was determined as 0.429 nM at PIM2, 0.076 nM at PIM1 and 0.033 nM at PIM3. In addition, the GI50 at BaF3 PIM1 cells was 52.2 nM; on BaF3 PIM2 cells it was greater than 5000 nM. Further, the EC50 in the test on MM1.S cells turned out to be 163 nM.

As a reminder, the Ki is the dissociation constant of the complex between target and ligand, obtained from inhibition or displacement. One may read the EC50 as the concentration that produces a half-maximal response.

Source of the values: patent US8435976B2, “4-substituted pyridin-3-yl-carboxamide compounds and methods of use” (F. Hoffmann-La Roche, priority 2009, dated 2013).
